Values after ≈ are worked out from the molar mass of the structure shown.
How the values were obtained:
[1] = Antiinflammatory activity in FMLP/CB-induced human neutrophils assessed as inhibition of superoxide anion generation; format: functional, cell-based; details: Neutrophil
[2] = Antiinflammatory activity in FMLP/CB-induced human neutrophils assessed as inhibition of superoxide anion generation relative to control; format: functional, Neutrophil
[3] = Antiinflammatory activity in FMLP/CB-induced human neutrophils assessed as inhibition of elastase release; format: functional, cell-based; details: Neutrophil
[4] = Antiinflammatory activity in FMLP/CB-induced human neutrophils assessed as inhibition of elastase release relative to control; format: functional, Neutrophil

Structure (SMILES) | IC50 [1] [µg/mL] | inhibition (INH) [2] [%] | IC50 [3] [µg/mL] | inhibition (INH) [4] [%]
CCOC(=O)c1nccc2c1[nH]c1ccccc12 | 4.87 (≈ 20.3 µM) | 93.92 | 6.29 (≈ 26.2 µM) | 70.75
CCOC(=O)CC(=O)c1nccc2c1[nH]c1ccccc12 | > 10 | 10.48 | > 10 | 3.06
COc1cc(=O)n2c3ccccc3c3ccnc1c32 | > 10 | 29.5 | > 10 | 8.2

Source: ChEMBL document CHEMBL3608224, “Total synthesis of cordatanine, structural reassignment of drymaritin, and anti-inflammatory activity of synthetic precursors” (Bioorg Med Chem Lett, 2015)
